Assay results reported in patent US8802663B2, “Pyrazole oxadiazole derivatives as S1P1 agonists” (Merck Serono SA, priority 2009, dated 2014).

The molecules below were run against S1P1 (Homo sapiens (Human), UniProt P21453) (assay: 35S-GTPγS binding, membranes from CHO cells expressing S1P1). Settings: CHO cell membranes.
Assay type: biochemical
Experimental: Cells were suspended in 50 mM TRIS, pH 7.4, 2 mM EDTA, 250 mM Sucrose (buffer A) and 1× Complete protease inhibitor cocktail (Roche), and disrupted at 4° C. by N2 decompression using a cell disruption bomb (Parr Instrument). Following centrifugation at 1000 RPM for 10 min at 4° C., the supernatant was suspended in buffer A and centrifuged again at 19000 RPM for 60 min at 4° C. The pellet was then suspended in 10 mM HEPES, pH 7.4, 1 mM EDTA, 250 mM Sucrose (Buffer B), and 1× Complete EDTA-free protease inhibitor cocktail and homogenized using a potter. Membranes were flash frozen in liquid N2 and stored at −80° C. [33P]sphingosine 1-phosphate (3000 Ci/mmol; American Radiolabeled Chemicals, Inc.) was added to test compounds in DMSO. […] Specific binding was calculated by subtracting remaining radioactivity in the presence of 1000-fold excess of unlabeled SIP. Binding data were analyzed using the GraphPad Prism program.
After 60 min incubation at 30° C. on a shaker, plates were centrifuged for 10 min at 2000 RPM. […] Triplicate samples were averaged and expressed as % response relative to S1P activation in absence of compound (n=2).

Sequence of S1P1 (P21453 whole entry, species assumed): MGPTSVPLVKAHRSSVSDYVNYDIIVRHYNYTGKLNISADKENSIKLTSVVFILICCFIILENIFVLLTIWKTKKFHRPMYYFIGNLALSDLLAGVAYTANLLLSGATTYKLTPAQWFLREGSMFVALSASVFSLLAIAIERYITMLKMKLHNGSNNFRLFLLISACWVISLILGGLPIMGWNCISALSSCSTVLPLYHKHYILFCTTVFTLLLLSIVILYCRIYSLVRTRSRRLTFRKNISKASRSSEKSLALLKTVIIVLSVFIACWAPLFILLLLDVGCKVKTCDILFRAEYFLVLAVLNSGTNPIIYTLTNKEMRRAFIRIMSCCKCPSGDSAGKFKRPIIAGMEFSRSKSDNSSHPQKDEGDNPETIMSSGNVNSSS

Row | Compound | EC50 [nM]
1 | Fc1ccc(F)c(-c2noc(-c3cnn(-c4ccccc4F)c3-c3ccccc3)n2)c1 [Example 2, 3-(2,5-difluorophenyl)-5-[1-(2-fluorophenyl)-5-phenyl-1H-pyrazol-4-yl]-1,2,4-oxadiazole] | 24
2 | COc1ccccc1-n1ncc(-c2nc(-c3cc(F)ccc3F)no2)c1-c1ccccc1 [Example 4, 3-(2,5-difluorophenyl)-5-[1-(2-methoxyphenyl)-5-phenyl-1H-pyrazol-4-yl]-1,2,4-oxadiazole] | 284
3 | CCOC(=O)Cn1ncc(-c2nc(-c3cc(F)ccc3F)no2)c1-c1ccncc1 [Example 20, ethyl {4-[3-(2,5-difluorophenyl)-1,2,4-oxadiazol-5-yl]-5-pyridin-4-yl-1H-pyrazol-1-yl}acetate] | 172
4 | CCCc1c(-c2nc(-c3cccc(S(C)(=O)=O)c3)no2)cnn1-c1ccccc1 [Example 22] | 370
5 | Fc1ccc(F)c(-c2noc(-c3cnn(Cc4ccccc4)c3-c3ccncc3)n2)c1 [Example 25, 4-{1-benzyl-4-[3-(2,5-difluorophenyl)-1,2,4-oxadiazol-5-yl]-1H-pyrazol-5-yl}pyridine] | 148
6 | CS(=O)(=O)c1cccc(-c2noc(-c3cnn(C4CCCCC4)c3-c3ccncc3)n2)c1 [Example 26, 4-(1-cyclohexyl-4-{3-[3-(methylsulfonyl)phenyl]-1,2,4-oxadiazol-5-yl}-1H-pyrazol-5-yl)pyridine] | 29
7 | OCc1ccc(-c2noc(-c3cnn(C4CCCCC4)c3-c3ccncc3)n2)cc1 [Example 29, {4-[5(1-cyclohexyl-5-pyridin-4-yl-1H-pyrazol-4-yl)-1,2,4-oxadiazol-3-yl]phenyl}methanol] | 24
8 | CC(C)Cn1ncc(-c2nc(-c3ccc4c(c3)CNCC4)no2)c1-c1ccncc1 [Example 36, 7-[5-(1-isobutyl-5-pyridin-4-yl-1H-pyrazol-4-yl)-1,2,4-oxadiazol-3-yl]-1,2,3,4-tetrahydroisoquinoline] | 114
9 | c1cc(-c2c(-c3nc(-c4ccc5c(c4)CNCC5)no3)cnn2C2CCCCC2)ccn1 [Example 39, 7-[5-(1-cyclohexyl-5-pyridin-4-yl-1H-pyrazol-4-yl)-1,2,4-oxadiazol-3-yl]-1,2,3,4-tetrahydroisoquinoline] | 16
10 | CC(C)Cn1ncc(-c2nc(-c3cccc(S(C)(=O)=O)c3)no2)c1-c1ccncc1 [Example 43, 4-(1-isobutyl-4-{3-[3-(methylsulfonyl)phenyl]-1,2,4-oxadiazol-5-yl}-1H-pyrazol-5-yl)pyridine] | 292
11 | OC1CCN(Cc2ccc(-c3noc(-c4cnn(C5CCCCC5)c4-c4ccncc4)n3)cc2)C1 (stereo not shown) [Example 45, 1-{4-[5-(1-cyclohexyl-5-pyridin-4-yl-1H-pyrazol-4-yl)-1,2,4-oxadiazol-3-yl]benzyl}pyrrolidin-3-ol] | 10
12 | COCc1c(-c2nc(-c3ccc(CO)cc3)no2)cnn1C1CCCCC1 [Example 49, (4-{5-[1-cyclohexyl-5-(methoxymethyl)-1H-pyrazol-4-yl]-1,2,4-oxadiazol-3-yl}phenyl)methanol] | 229
13 | c1ccc(-c2nc(-c3cnn(C4CCCCC4)c3-c3ccccc3)no2)cc1 [Example 51, 3-(1-cyclohexyl-5-phenyl-1H-pyrazol-4-yl)-5-phenyl-1,2,4-oxadiazole] | 310
14 | Fc1ccccc1-c1nc(-c2cnn(C3CCCCC3)c2-c2ccccc2)no1 [Example 52, 3-(1-cyclohexyl-5-phenyl-1H-pyrazol-4-yl)-5-(2-fluorophenyl)-1,2,4-oxadiazole] | 313
15 | c1ccc(-c2c(-c3noc(-c4cccnc4)n3)cnn2C2CCCCC2)cc1 [Example 53, 3-[3-(1-cyclohexyl-5-phenyl-1H-pyrazol-4-yl)-1,2,4-oxadiazol-5-yl]pyridine] | 164
16 | CC(C)Cn1ncc(-c2nc(-c3ccc(CO)cc3)no2)c1-c1ccncc1 [Example 54, {4-[5-(1-isobutyl-5-pyridin-4-yl-1H-pyrazol-4-yl)-1,2,4-oxadiazol-3-yl]phenyl}methanol] | 189
17 | CNCc1ccc(-c2noc(-c3cnn(C4CCCCC4)c3-c3ccncc3)n2)cc1 [Example 55, 1-{4-[5-(1-cyclohexyl-5-pyridin-4-yl-1H-pyrazol-4-yl)-1,2,4-oxadiazol-3-yl]phenyl}-N-methylmethanamine] | 24
18 | OCCNCc1ccc(-c2noc(-c3cnn(C4CCCCC4)c3-c3ccncc3)n2)cc1 [Example 56, 2-({4-[5-(1-cyclohexyl-5-pyridin-4-yl-1H-pyrazol-4-yl)-1,2,4-oxadiazol-3-yl]benzyl}amino)ethanol] | 11

The next lines start with the values.

Row | EC50 [nM] | Compound
19 | 288 | CC(C)Cn1cc(-c2nc(-c3cc(F)ccc3F)no2)c(-c2ccccc2)n1 [Example 7, 3-(2,5-difluorophenyl)-5-(1-isobutyl-3-phenyl-1H-pyrazol-4-yl)-1,2,4-oxadiazole]
20 | 172 | CC(C)n1ncc(-c2nc(-c3cc(F)ccc3F)no2)c1-c1ccccc1 [Example 10, 3-(2,5-difluorophenyl)-5-(1-isopropyl-5-phenyl-1H-pyrazol-4-yl)-1,2,4-oxadiazole]
21 | 201 | CCCn1ncc(-c2nc(-c3cc(F)ccc3F)no2)c1-c1ccccc1 [Example 14, 3-(2,5-difluorophenyl)-5-(5-phenyl-1-propyl-1H-pyrazol-4-yl)-1,2,4-oxadiazole]
22 | 192 | Cc1c(-c2nc(-c3cc(F)ccc3F)no2)cnn1-c1ccccc1 [Example 15, 3-(2,5-difluorophenyl)-5-(5-methyl-1-phenyl-1H-pyrazol-4-yl)-1,2,4-oxadiazole]
23 | 901 | Cn1cc(-c2nc(-c3cc(F)ccc3F)no2)c(C(C)(C)C)n1 [Example 16, 5-(3-tert-butyl-1-methyl-1H-pyrazol-4-yl)-3-(2,5-difluorophenyl)-1,2,4-oxadiazole]
24 | 648 | COCc1c(-c2nc(-c3cc(F)ccc3F)no2)cnn1CC(C)C [Example 17, 3-(2,5-difluorophenyl)-5-(1-isobutyl-5-(methoxymethyl)-1H-pyrazol-4-yl)-1,2,4-oxadiazole]
25 | 776 | CCc1c(-c2nc(-c3cc(F)ccc3F)no2)cnn1CC(C)C [Example 18, 3-(2,5-difluorophenyl)-5-(5-ethyl-1-isobutyl-1H-pyrazol-4-yl)-1,2,4-oxadiazole]
26 | 81 | CCCc1c(-c2nc(-c3cc(F)ccc3F)no2)cnn1-c1ccccc1 [Example 21, 3-(2,5-difluorophenyl)-5-(1-phenyl-5-propyl-1H-pyrazol-4-yl)-1,2,4-oxadiazole]
27 | 292 | Fc1ccc(F)c(-c2noc(-c3cnn(CC(F)(F)F)c3-c3ccncc3)n2)c1 [Example 24, 3-(2,5-difluorophenyl)-5-(5-(pyridin-4-yl)-1-(2,2,2-trifluoroethyl)-1H-pyrazol-4-yl)-1,2,4-oxadiazole]
28 | 27 | COCc1c(-c2nc(-c3cc(F)ccc3F)no2)cnn1C1CCCCC1 [Example 27, 5-[1-cyclohexyl-5-(methoxymethyl)-1H-pyrazol-4-yl]-3-(2,5-difluorophenyl)-1,2,4-oxadiazole]
29 | 20 | Fc1ccc(F)c(-c2noc(-c3cnn(C4CCCC4)c3-c3ccncc3)n2)c1 [Example 30, 4-{1-cyclopentyl-4-[3-(2,5-difluorophenyl)-1,2,4-oxadiazol-5-yl]-1H-pyrazol-5-yl}Pyridine]
30 | 180 | CC(C)Cn1ncc(-c2nc(-c3cc(F)ccc3F)no2)c1C1CCOCC1 [Example 32, 3-(2,5-difluorophenyl)-5-[1-isobutyl-5-(tetrahydro-2H-pyran-4-yl)-1H-pyrazol-4-yl]-1,2,4-oxadiazole]
31 | 216 | Fc1ccc(F)c(-c2noc(-c3cnn(C4CCOCC4)c3-c3ccccc3)n2)c1 [Example 33, 3-(2,5-difluorophenyl)-5-[5-phenyl-1-(tetrahydro-2H-pyran-4-yl)-1H-pyrazol-4-yl]-1,2,4-oxadiazole]
32 | 931 | Fc1ccc(F)c(-c2noc(-c3cnn(CCNC4CC4)c3-c3ccccc3)n2)c1 [Example 35, N-(2-{4-[3-(2,5-difluorophenyl)-1,2,4-oxadiazol-5-yl]-5-phenyl-1H-pyrazol-1-yl}ethyl)cyclopropanamine]
33 | 402 | Fc1ccc(F)c(-c2noc(-c3cnn(C4CCC4)c3-c3ccncc3)n2)c1 [Example 44, 4-{1-cyclobutyl-4-[3-(2,5-difluorophenyl)-1,2,4-oxadiazol-5-yl]-1H-pyrazol-5-yl}pyridine]
34 | 26 | C[C@H]1CCCC[C@@H]1n1ncc(-c2nc(-c3cc(F)ccc3F)no2)c1-c1ccccc1 [Example 46, 3-(2,5-difluorophenyl)-5-{1-[(1S,2S)-2-methylcyclohexyl]-5-phenyl-1H-pyrazol-4-yl}-1,2,4-oxadiazole]
35 | 47 | Cc1ccccc1-c1c(-c2nc(-c3cc(F)ccc3F)no2)cnn1C1CCCCC1 [Example 48, 5-[1-cyclohexyl-5-(2-methylphenyl)-1H-pyrazol-4-yl]-3-(2,5-difluorophenyl)-1,2,4-oxadiazole]
36 | 211 | CC(C)Cn1ncc(-c2nc(-c3cccc(C(F)(F)F)c3)no2)c1C1CCOCC1 [Example 50, 5-[1-isobutyl-5-(tetrahydro-2H-pyran-4-yl)-1H-pyrazol-4-yl]-3-[3-(trifluoromethyl)phenyl]-1,2,4-oxadiazole]
37 | 49 | Fc1ccc(F)c(-c2nc(-c3cnn(C4CCCCC4)c3-c3ccccc3)no2)c1 [Example 57, 3-(1-cyclohexyl-5-phenyl-1H-pyrazol-4-yl)-5-(2,5-difluorophenyl)-1,2,4-oxadiazole]
